Active and inactive are the calls of the source. No cut-off for these calls is given here.
What was measured:
[1] = Cell cycle arrest in human MDA-MB-231 cells assessed as cell enlargement at 5 to 10 uM after 8 days by light microscopic analysis; assay type: functional, cell-based
[2] = Cell cycle arrest in human MDA-MB-231 cells assessed as cell flattening at 5 to 10 uM after 8 days by light microscopic analysis; assay type: functional, cell-based
[3] = Antiproliferative activity against human RPMI8226 cells after 48 hrs by sulforhodamine B assay; assay type: functional; conditions: RPMI-8226, 48 h
[4] = Antiproliferative activity against human SR cells after 48 hrs by sulforhodamine B assay; assay type: functional
[5] = Antiproliferative activity against human HOP62 cells after 48 hrs by sulforhodamine B assay; assay type: functional; conditions: HOP-62, 48 h
[6] = Antiproliferative activity against human NCI-H322M cells after 48 hrs by sulforhodamine B assay; assay type: functional
[7] = Antiproliferative activity against human NCI-H460 cells after 48 hrs by sulforhodamine B assay; assay type: functional; conditions: NCI-H460, 48 h
[8] = Antiproliferative activity against human NCI-H522 cells after 48 hrs by sulforhodamine B assay; assay type: functional; conditions: NCI-H522, 48 h
[9] = Antiproliferative activity against human HT-29 cells after 48 hrs by sulforhodamine B assay; assay type: functional; conditions: HT-29, 48 h
[10] = Antiproliferative activity against human KM12 cells after 48 hrs by sulforhodamine B assay; assay type: functional; conditions: KM12, 48 h
[11] = Antiproliferative activity against human SW620 cells after 48 hrs by sulforhodamine B assay; assay type: functional; conditions: SW-620, 48 h
[12] = Antiproliferative activity against human UACC62 cells after 48 hrs by sulforhodamine B assay; assay type: functional; conditions: UACC-62, 48 h
[13] = Antiproliferative activity against human IGROV1 cells after 48 hrs by sulforhodamine B assay; assay type: functional; conditions: IGROV-1, 48 h
[14] = Antiproliferative activity against human OVCAR3 cells after 48 hrs by sulforhodamine B assay; assay type: functional; conditions: OVCAR-3, 48 h
[15] = Antiproliferative activity against human OVCAR8 cells after 48 hrs by sulforhodamine B assay; assay type: functional; conditions: OVCAR-8, 48 h
[16] = Antiproliferative activity against human NCI-ADR-RES cells after 48 hrs by sulforhodamine B assay; assay type: functional
[17] = Antiproliferative activity against human A498 cells after 48 hrs by sulforhodamine B assay; assay type: functional; conditions: A498, 48 h
[18] = Antiproliferative activity against human Caki1 cells after 48 hrs by sulforhodamine B assay; assay type: functional; conditions: CAKI-1, 48 h
[19] = Antiproliferative activity against human RXF393 cells after 48 hrs by sulforhodamine B assay; assay type: functional; conditions: RXF 393, 48 h
[20] = Antiproliferative activity against human SN12C cells after 48 hrs by sulforhodamine B assay; assay type: functional
[21] = Antiproliferative activity against human MDA-MB-231 cells after 48 hrs by sulforhodamine B assay; assay type: functional; conditions: MDA-MB-231, 48 h
[22] = Antiproliferative activity against human Hs 578T cells after 48 hrs by sulforhodamine B assay; assay type: functional
[23] = test system: MDA-MB-231; assay: Cytotoxicity against human MDA-MB-231 cells assessed as inhibition of cell viability after 48 hrs by MTT assay relative to control; assay type: functional, cell-based
[24] = Cytotoxicity against human MDA-MB-231 cells assessed as inhibition of cell viability at 5 uM after 48 hrs by MTT assay relative to control; assay type: functional; conditions: MDA-MB-231, 48 h
[25] = Cell cycle arrest in human MDA-MB-231 cells assessed as accumulation at G2/M phase at 10 uM after 24 hrs by propidium iodide staining based flow cytometric analysis (reference value: 20.4%); assay type: functional
[26] = Cell cycle arrest in human MDA-MB-231 cells assessed as accumulation at subG0/G1 phase at 5 uM after 48 hrs by propidium iodide staining based flow cytometric analysis (reference value: 8.8%); assay type: functional
[27] = Cell cycle arrest in human MDA-MB-231 cells assessed as accumulation at G2/M phase at 5 uM after 48 hrs by propidium iodide staining based flow cytometric analysis (reference value: 19.5%); assay type: functional
[28] = Cell cycle arrest in human MDA-MB-231 cells assessed as accumulation at G2/M phase at 10 uM after 48 hrs by propidium iodide staining based flow cytometric analysis (reference value: 19.5%); assay type: functional
[29] = Cell cycle arrest in human MDA-MB-231 cells assessed as accumulation at subG0/G1 phase at 10 uM after 72 hrs by propidium iodide staining based flow cytometric analysis (reference value: 6.3%); assay type: functional
[30] = Cell cycle arrest in human MDA-MB-231 cells assessed as accumulation at G2/M phase after 96 to 120 hrs by propidium iodide staining based flow cytometric analysis; assay type: functional
[31] = test system: MDA-MB-231; assay: Effect on cell cycle regulatory protein in human MDA-MB-231 cells assessed as cyclin B1 level at 10 uM after 48 hrs by Western blot analysis relative to control; assay type: functional
[32] = test system: MDA-MB-231; assay: Effect on cell cycle regulatory protein in human MDA-MB-231 cells assessed as cdc2 level at 5 uM after 24 hrs by Western blot analysis relative to control; assay type: functional
[33] = test system: MDA-MB-231; assay: Effect on cell cycle regulatory protein in human MDA-MB-231 cells assessed as cdc2 level at 10 uM after 24 hrs by Western blot analysis relative to control; assay type: functional
[34] = test system: MDA-MB-231; assay: Effect on cell cycle regulatory protein in human MDA-MB-231 cells assessed as cdc2 level at 10 uM after 48 hrs by Western blot analysis relative to control; assay type: functional
[35] = test system: MDA-MB-231; assay: Effect on cell cycle regulatory protein in human MDA-MB-231 cells assessed as p21 level at 5 uM after 24 hrs by Western blot analysis relative to control; assay type: functional
[36] = test system: MDA-MB-231; assay: Effect on cell cycle regulatory protein in human MDA-MB-231 cells assessed as p21 level at 10 uM after 24 hrs by Western blot analysis relative to control; assay type: functional
[37] = read-out: LC50 (the source's name)

**Q.** What does the source list for `C=C1c2c(C)nn(-c3ccc(C#CCO[C@@H]4O[C@H](CO)[C@@H](O)[C@H](O)[C@H]4O)cc3)c2N(C)C23CC1C1(C)c4c(C)nn(-c5ccc(C#CCO[C@@H]6O[C@H](CO)[C@@H](O)[C@H](O)[C@H]6O)cc5)c4N(C)C(C)(CC12)C3` (stereo partly specified)?
**A.** Activity [1]: Active; Activity [2]: Active; GI50 [3]: 0.29 µM; TGI [3]: 1.72 µM; CC50 [3, 37]: 100 µM; GI50 [4]: 3.28 µM; TGI [4]: 100 µM; CC50 [4, 37]: 100 µM; GI50 [5]: 1.49 µM; TGI [5]: 2.88 µM; CC50 [5, 37]: 5.57 µM; GI50 [6]: 1.76 µM; TGI [6]: 3.75 µM; CC50 [6, 37]: 8.01 µM; GI50 [7]: 1.69 µM; TGI [7]: 3.85 µM; CC50 [7, 37]: 8.77 µM; GI50 [8]: 1.67 µM; TGI [8]: 3.26 µM; CC50 [8, 37]: 6.37 µM; GI50 [9]: 1.63 µM; TGI [9]: 4.21 µM; CC50 [9, 37]: 16.1 µM; GI50 [10]: 1.44 µM; TGI [10]: 2.9 µM; CC50 [10, 37]: 5.84 µM; GI50 [11]: 1.72 µM; TGI [11]: 3.77 µM; CC50 [11, 37]: 8.29 µM; GI50 [12]: 1.22 µM; TGI [12]: 2.86 µM; CC50 [12, 37]: 6.71 µM; GI50 [13]: 1.56 µM; TGI [13]: 3.95 µM; CC50 [13, 37]: 10.1 µM; GI50 [14]: 1.52 µM; TGI [14]: 3.8 µM; CC50 [14, 37]: 9.49 µM; GI50 [15]: 1 µM; TGI [15]: 3.84 µM; CC50 [15, 37]: 55.1 µM; GI50 [16]: 5.43 µM; TGI [16]: 47 µM; CC50 [16, 37]: 100 µM; GI50 [17]: 1.5 µM; TGI [17]: 3.18 µM; CC50 [17, 37]: 6.72 µM; GI50 [18]: 2.81 µM; TGI [18]: 11.6 µM; CC50 [18, 37]: 49 µM; GI50 [19]: 1.62 µM; TGI [19]: 3.52 µM; CC50 [19, 37]: 7.63 µM; GI50 [20]: 1.38 µM; TGI [20]: 3.72 µM; CC50 [20, 37]: 9.99 µM; GI50 [21]: 1.5 µM; TGI [21]: 3.06 µM; CC50 [21, 37]: 6.23 µM; GI50 [22]: 0.47 µM; TGI [22]: 9.85 µM; CC50 [22, 37]: 100 µM; inhibition [23]: Dose-dependent effect; inhibition at 5 µM [24]: 68%; Activity [25]: 36.6%; Activity [26]: 2.1%; Activity [27]: 30.6%; Activity [28]: 31.1%; Activity [29]: 1.6%; Activity [30]: Active; fold change (FC) [31]: 0.5; fold change (FC) [32]: 0.9; fold change (FC) [33]: 0.8; fold change (FC) [34]: 0.3; fold change (FC) [35]: 0.1; fold change (FC) [36]: 1

From ChEMBL document CHEMBL3872201, “Synthesis and antiproliferative activity of a natural like glycoconjugate polycyclic compound” (2016)
